36 compounds from ChEMBL document CHEMBL1138133, “6-Acylamino-2-amino-4-methylquinolines as potent melanin-concentrating hormone 1 receptor antagonists: structure-activity exploration of eastern and western parts” (Bioorg Med Chem Lett, 2006) can be followed below.

In assay [1] the target is T1, Melanin-concentrating hormone receptor 1 (Homo sapiens, UniProt Q99705). Briefly: Inhibition of human MCH1 receptor by SPA assay.
Assay [2] addresses T1, Melanin-concentrating hormone receptor 1. As to the kind of experiment: Displacement of [125I]MCH from human MCH1 receptor expressed in CHO cell by WC assay. In kind it is cell-based.
For assay [3] the target is unchanged. As to the kind of experiment: […] human MCH1 receptor expressed in CHO cell by IP3 assay. In kind it is cell-based.

T1 sequence (Q99705 whole entry): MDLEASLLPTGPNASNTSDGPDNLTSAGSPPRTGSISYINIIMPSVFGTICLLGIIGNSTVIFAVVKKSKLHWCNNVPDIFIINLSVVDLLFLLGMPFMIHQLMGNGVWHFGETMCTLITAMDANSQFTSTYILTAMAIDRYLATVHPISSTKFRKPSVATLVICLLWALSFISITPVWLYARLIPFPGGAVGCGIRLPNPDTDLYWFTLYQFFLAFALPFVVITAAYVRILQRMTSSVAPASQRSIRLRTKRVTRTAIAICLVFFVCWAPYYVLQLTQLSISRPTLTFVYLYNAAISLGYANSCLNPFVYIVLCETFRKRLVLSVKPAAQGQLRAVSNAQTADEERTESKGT

On to `Cc1cc(N(C)CCN(C)C)nc2ccc(NC(=O)/C=C/c3ccccc3Cl)cc12`, for which, in assay [1], half-maximal inhibition (IC50) was put at 2540 nM.

On to `Cc1cc(N2CCCN(C)CC2)nc2ccc(NC(=O)COc3ccc(OC(F)(F)F)cc3)cc12`, for which the results for the half-inhibitory concentration (IC50) in assay [2], in assay [1] and in assay [3] were 3.7 nM, 20 nM and 244 nM, respectively.

`Cc1ccc(/C=C/C(=O)Nc2ccc3nc(N(C)CCN(C)C)cc(C)c3c2)cc1`: the IC50 was 17 nM in assay [2], 48 nM in assay [1] and 478 nM in assay [3].

For the compound `Cc1cc(N(C)CCN(C)C)nc2ccc(NC(=O)c3ccc(-c4ccc(C(F)(F)F)cc4)cc3)cc12`, the half-inhibitory concentration (IC50) in assay [2] is 10 nM.

With `Cc1cc(N2C[C@@H](C)N[C@@H](C)C2)nc2ccc(NC(=O)COc3ccc(OC(F)(F)F)cc3)cc12`, the concentration for half-maximal inhibition (IC50) in assay [2] amounted to 44 nM; in assay [1] it was 87 nM.

`Cc1cc(N(C)CCN(C)C)nc2ccc(NC(=O)CCc3ccccc3)cc12` gave an IC50 in assay [1] greater than 10000 nM.

As for `Cc1cc(N(C)CCN(C)C)nc2ccc(NC(=O)C3CCC(c4ccc(Cl)cc4)CC3)cc12` (stereo not drawn), the results for the IC50 in assay [2], in assay [1] and in assay [3] were 23 nM, 423 nM and 393 nM, respectively.

In assay [1], `Cc1cc(N(C)CCN(C)C)nc2ccc(NC(=O)c3ccc(Oc4ccccc4)cc3)cc12` showed an IC50 of 210 nM. That is a sub-micromolar value.

As to `Cc1cc(N2CCN[C@@H](C)C2)nc2ccc(NC(=O)COc3ccc(OC(F)(F)F)cc3)cc12`, the results for the half-maximal inhibitory concentration (IC50) in assay [2] and in assay [1] were 3.7 nM and 13 nM, respectively.

As to `CCN(CC)CCNc1cc(C)c2cc(NC(=O)COc3ccc(OC(F)(F)F)cc3)ccc2n1`, the IC50 in assay [2] was determined as 3.2 nM; in assay [1] it was 15 nM.

Turning to `Cc1cc(NCC(C)(C)CN(C)C)nc2ccc(NC(=O)COc3ccc(OC(F)(F)F)cc3)cc12`, the half-maximal inhibitory concentration (IC50) in assay [2] came out at 4.7 nM; in assay [1], 16 nM.

Turning to `Cc1cc(N(C)CCN(C)C)nc2ccc(NC(=O)CNc3ccc(Cl)cc3Cl)cc12`, the IC50 in assay [1] was 125 nM.

In assay [1], `Cc1cc(N(C)CCN(C)C)nc2ccc(NC(=O)COc3ccccc3)cc12` yielded a concentration for half-maximal inhibition (IC50) greater than 10000 nM.

For the compound `Cc1cc(N(C)CCN(C)C)nc2ccc(NC(=O)/C=C/c3ccccc3)cc12`, the IC50 in assay [1] was 6970 nM.

In the case of `C/C(=C\c1ccccc1)C(=O)Nc1ccc2nc(N(C)CCN(C)C)cc(C)c2c1`, in assay [1], the 50% inhibitory concentration (IC50) was found to be 9460 nM. The IC50 values of the last two compounds are within 1.5-fold of each other.

The compound `Cc1cc(N(C)CCN(C)C)nc2ccc(NC(=O)Cc3ccc(-c4ccccc4)cc3)cc12` gave an IC50 in assay [1] of 3280 nM.

With `Cc1cc(NC2CCN(Cc3ccccc3)CC2)nc2ccc(NC(=O)COc3ccc(OC(F)(F)F)cc3)cc12`, the half-inhibitory concentration (IC50) in assay [2] is 13 nM; in assay [1] it was 40 nM; in assay [3], 91 nM.

Regarding `Cc1oc(-c2ccccc2)nc1CC(=O)Nc1ccc2nc(N(C)CCN(C)C)cc(C)c2c1`, in assay [1], it took 568 nM to reach half-maximal inhibition (IC50).

In turn, `Cc1cc(N(C)CCN(C)C)nc2ccc(NC(=O)NCc3ccc(Br)cc3)cc12` yielded a 50% inhibitory concentration (IC50) in assay [1] of 271 nM. Against the preceding compound, the IC50 is about 2.1-fold lower.

On to `Cc1cc(N2CCN[C@H](C)C2)nc2ccc(NC(=O)COc3ccc(OC(F)(F)F)cc3)cc12`, for which the IC50 in assay [2] amounted to 4.1 nM; in assay [1] it was 18 nM; in assay [3] it was 100 nM.

Regarding `Cc1cc(N(C)CCN(C)C)nc2ccc(NC(=O)c3ccc(Oc4ccccc4)nc3)cc12`, the half-inhibitory concentration (IC50) in assay [1] was 105 nM.

`Cc1cc(NCCN2CCOCC2)nc2ccc(NC(=O)COc3ccc(OC(F)(F)F)cc3)cc12`: the 50% inhibitory concentration (IC50) in assay [2] is 1.3 nM; in assay [1], 9.6 nM.

As for `Cc1cc(N(C)CCN(C)C)nc2ccc(NC(=O)CCc3ccc(OC(F)(F)F)cc3)cc12`, the results for the concentration for half-maximal inhibition (IC50) in assay [2] and in assay [1] were 14 nM and 40 nM, respectively.

Turning to `Cc1cc(N2CCN(CCO)CC2)nc2ccc(NC(=O)COc3ccc(OC(F)(F)F)cc3)cc12`, the figures for the IC50 in assay [2] and in assay [1] were 1.7 nM and 5 nM, respectively.

In turn, `Cc1cc(N(C)CCN(C)C)nc2ccc(NC(=O)c3cc4ccccc4s3)cc12` displayed a half-maximal inhibitory concentration (IC50) in assay [1] of 2100 nM.

Regarding `Cc1cc(N(C)CCN(C)C)nc2ccc(NC(=O)COc3ccc(Cl)cc3)cc12`, the IC50 was 33 nM in assay [2], 83 nM in assay [1] and 807 nM in assay [3].

For the compound `Cc1cc(N(C)CCN(C)C)nc2ccc(NC(=O)COc3ccc(OC(F)(F)F)cc3)cc12`, the results for the IC50 in assay [2], in assay [1] and in assay [3] were 2.3 nM, 18 nM and 31 nM, respectively.

As for `Cc1cc(NCCN(C)C)nc2ccc(NC(=O)COc3ccc(OC(F)(F)F)cc3)cc12`, the figures for the concentration for half-maximal inhibition (IC50) in assay [2] and in assay [1] were 5.3 nM and 18 nM, respectively.

In the case of `Cc1cc(N(C)CCN(C)C)nc2ccc(NC(=O)c3ccc(OC(F)(F)F)cc3)cc12`, the IC50 in assay [1] amounted to 2760 nM.

For the compound `Cc1cc(N(C)CCN(C)C)nc2ccc(NC(=O)CCc3nc(-c4ccccc4)c(-c4ccccc4)o3)cc12`, the midpoint of inhibition in assay [1], the IC50, lay at 162 nM.

`Cc1cc(NCCN(C(C)C)C(C)C)nc2ccc(NC(=O)COc3ccc(OC(F)(F)F)cc3)cc12` came in with a half-maximal inhibitory concentration (IC50) in assay [2] of 7.1 nM.

On to `Cc1cc(NCCN2CCCCC2)nc2ccc(NC(=O)COc3ccc(OC(F)(F)F)cc3)cc12`, for which the IC50 is 0.91 nM in assay [2], 5.3 nM in assay [1] and 33 nM in assay [3].

In assay [2], `Cc1cc(N2CCCNCC2)nc2ccc(NC(=O)COc3ccc(OC(F)(F)F)cc3)cc12` came in with a concentration for half-maximal inhibition (IC50) of 2 nM.

Regarding `Cc1cc(N(C)CCN(C)C)nc2ccc(NC(=O)c3ccc(-c4ccccc4)cc3)cc12`, the half-inhibitory concentration (IC50) was 5.7 nM in assay [2], 42 nM in assay [1] and 25 nM in assay [3].

On to `Cc1cc(N2C[C@@H](C)NC[C@@H]2C)nc2ccc(NC(=O)COc3ccc(OC(F)(F)F)cc3)cc12` (racemic), for which the half-maximal inhibitory concentration (IC50) in assay [2] came out at 3.4 nM; in assay [1], 20 nM.

For the compound `Cc1cc(N(C)CCN(C)C)nc2ccc(NC(=O)C3CC3c3ccccc3)cc12` (racemic), in assay [1], the IC50 is greater than 10000 nM.
